Reference: patent US5100907A, “Hydantoin esters” (Lonza, Inc., priority 1990, dated 1992)
Like-named read-outs stand apart in the source and are kept apart here.

Key:
Assay type in all cases: physicochemical
[1] = Surface tension tests (cmc, Gibbs' Free Energy of Micellation); settings: for ΔG°cmc (Gibbs' Free Energy of Micellation): calculated from cmc by Eq. 1, T=298° K.; for cmc (critical micelle concentration): ester/water solution
Method: Surface tension tests were conducted as to the relationship between the fatty acid aliphatic chain length, i.e. number of carbon atoms, in the esters (I), and their performance as surfactants. The length of the hydrophobic chain of a molecule is considered the major contributing factor to the critical micelle concentration (cmc) value of a surfactant. This value is obtained from surface tension measurement data. The lower the cmc, the more readily the material will form micelles.
The Gibbs' Free Energy of Micellation (ΔG°cmc) and the ΔG°cmc per --CH2 -- can be determined if the cmc is known.
The ΔG°cmc is a calculated value obtained by Equation 1.
ΔG°cmc =2.303RT(log cmc-log[water]) (Eq. 1)
The ΔG°cmc per --CH2 -- value is obtained from the slope of the straight line curve formed from a plot of ΔG°cmc versus the number of carbon atoms in the lipophilic chain.
The cmc values were based on surface tension tests conducted with a tensiometer (Cenco-DuNoug Precision Model #70535, direct reading model) to determine the upward surface tension at the liquid-air surface of the test ester/water solution. The methods used to calibrate the tensiometer, calculate the "correction factor" (used to correct for the difference between the apparent and true surface tension), and collect data, were conducted as described in the manual for the instrument. Sodium lauryl sulfate (SLS) and distilled water were used as reference samples.
On completing data collection, plots of the surface tension (dynes) versus -log of the concentration (mols/liter) were prepared, using only the "corrected" surface tension value, obtained by applying the noted "correction factor" in each case. The […] was found by multiplying the "apparent" surface tension by a calculated correction factor.
The critical micelle concentration (cmc) for each sample was determined by locating the point in the curve where the surface tension first begins to level off, per a known procedure.

[2] = Total available formaldehyde (TF) and free formaldehyde (FF) levels of esters (I); settings: for FF (free formaldehyde) / TF (total available formaldehyde): neat ester, Table 3
Excerpt: Thus, whether the formaldehyde content is chemically bonded to the hydantoin moiety or is free formaldehyde (FF) in solution, e.g., in water as formaldehyde or methylene glycol [CH2 (OH)2 ], it remains available for biocidal action. Due to this direct relation, the weight percent TF in a given preparation of the ester (I), e.g. a cosmetic formulation, can be predicted accurately, regardless of the level of dilution.

[3] = Physical properties of methylolated MHEDMH esters (I): viscosity; settings: at 25° C.
[4] = Dispersion stability tests
Method: The dispersion stability tests were performed on the esters (I) to determine the extent each was able to disperse itself in an aqueous medium.
The dispersions were prepared by homogenizing a mixture of the test ester and water, after which repeated examination of the sample was effected for a period of 55 days. This test method is fully indicative of the dispersibility of these esters (I).
The dispersion tests were performed with the esters at 0.5% and 5.0% active levels in water, prepared by combining the test ester with distilled water, and homogenizing the mixture for one to three minutes, via a Kika-Werk Ultra-Turrax S D-45 homogenizer. The dispersions were poured into an eight ounce flint jar, capped, and periodically examined over a 55 day period.

Emulsion stability tests = assay: Emulsion stability tests
Method: Emulsion stability tests were performed on the esters (I), and for comparison on the precursor esters (Ia), to determine the extent to which each stabilized a standardized solution of water and an oil, using a common procedure consisting of homogenizing a mixture containing the test ester (2%), myristyl propionate (7%), and water (91%). While two emulsifiers are normally used to prepare a cosmetic formulation, e.g. one with a high HLB and the other with a low HLB, the test method herein using only one emulsifier, i.e. the test ester, is fully indicative of the emulsifying attributes of these esters.
The tests were performed with emulsions (500 g), prepared by combining the test ester (10.0 g), myristyl propionate (35 g), and distilled water (455 g) in a container and homogenizing the contents for one minute, via a Kika-Werk Ultra-Turrax S D-45 homogenizer. The emulsions were poured into a one pound flint jar, capped, and periodically examined over a 55 day period.

[5] = HLB determination (weighted average method)
Excerpt: Hydrophilic-Lipophilic Balance or HLB is a means of associating the hydrophilic and lipophilic characteristics between two surfactants. A "weighted average" method was used to determine the HLB of the esters (I), and by comparison of the precursor ester (Ia), in which two emulsifiers of known HLB values along with the test ester were incorporated in a mixture of mineral oil and water. Evaluation and HLB determination of each of a series of prepared emulsion samples were effected by visual inspection.
The HLB of the mixture "m" is calculated from the sum of the HLB contributions of each surfactant, "a", "b", "c", per Equation 2 which describes a system of oil, water, and three surfactants.
Given that [HLB]m, [HLB]a, and [HLB]b, are known, and the ideal amount of "a", "b", and "c" to prepare a perfect emulsion has been determined, then by rearrangement of Eq. 2, the HLB of "c" can be calculated by Equation 3.
To obtain the HLB of the test ester as surfactant "c", a series of formulations was prepared in which the known surfactant sorbitan monostearate (SMS) as "a" and the known surfactant POE 20 sorbitan monostearate (POE 20 SMS) as "b" were varied in amount (wt. %) relative to each other at a constant amount (1 wt. %) of "c", until an optimum emulsion was obtained. Different combinations of "a" and "b" were used to vary the HLB of "c", for emulsifying a 40:56 (wt. %) mixture of paraffin oil and distilled water (totaling 96 wt. %).
To prepare the emulsions, surfactants "a", "b", and "c", and the paraffin oil were combined in a 150 ml beaker and heated slowly with agitation to 70°-80° C. The value of "X" in each formulation was predetermined by rearranging Eq. 3 to solve for X, and then inserting into the equation various [HLB]c values for the test ester (i.e., 2, 3, 4, 5, 6 . . . ). The [HLB]c values chosen reflected a range that would likely contain the actual HLB of the test ester. Hot distilled water (70°-80° C.) was then slowly added with agitation. The total weight of all these reagents was 100 grams. The resulting emulsion was allowed to cool, with continued agitation, until the temperature dropped below 30° C.
A series of emulsions for each test was prepared, one at a time, and then examined as a set. Each sample within the series was evaluated and graded according to the quality of the emulsion by visual examination of droplet size.

[6] = Solubilities of esters in typical solvents / appearance of samples in water
[7] = 1% active concentration in water

Row | Compound | ΔG°cmc (Gibbs' Free Energy of Micellation) [1] [kcal/mol] | cmc (critical micelle concentration) [1] | Calculated TF [2, 7] [Wt. %] | Determined FF [2, 7] [Wt. %] | FF (free formaldehyde) [2] [Wt. %] | TF (total available formaldehyde) [2] [Wt. %] | dispersion quality, decreasing order of rank [4] | emulsion quality, decreasing order of rank (Emulsion stability tests) | Average HLB [5] | HLB Range [5] | also measured
1 | 2-(3-hydroxymethyl-5,5-dimethyl-1,3-diazacyclopentane-2,4-dion-1-yl)-ethylester of isostearic acid [Isostearic Methylolated Ester] | -7.13 | 3.0 × 10^-4 mol dm^-3 | 0.062 | 0.0082 | 0.2 | 6.2 | isostearate>oleate>cocoate>laurate>C8/10ester>>stearate>acetate | cocoate, laurate>oleate,isostearate>stearate>C8/10 ester>acetate | 15.0 | 14-16 | surface active properties [1]: particularly favorable surface active properties; Viscosity [3]: 957 cts
2 | CCCCCCCCCCCCCCCCCC(=O)OCCN1C(=O)N(CO)C(=O)C1(C)C [Stearic Methylolated Ester, 2-(3-hydroxymethyl-5,5-dimethyl-1,3-diazacyclopentane-2,4-dion-1-yl)-ethylester of stearic acid] | -5.277 | 7.0 × 10^-3 mol dm^-3 | 0.064 | 0.0066 | 0.2 | 6.4 | isostearate>oleate>cocoate>laurate>C8/10ester>>stearate>acetate | cocoate, laurate>oleate,isostearate>stearate>C8/10 ester>acetate | 7.0 | 6-8 | water solubility relative to the other esters [6]: far less soluble in water than the other such esters; Solubility in isopropyl alcohol ([6]; 25° C.): S (>10 g/100 g Solvent); Solubility in mineral oil ([6]; 25° C.): S (>10 g/100 g Solvent); solubility ([6]; water, 25° C., grams, legend per 100 g Solvent): < 10000 µg/mL; Ratio FF/TF [2, 7]: 0.103; Classification of Dispersion ([4]; 0.5% active in water, 3 Days): 2-Phase; Classification of Dispersion ([4]; 0.5% active in water, 13 Days): 2-Phase; Classification of Dispersion ([4]; 0.5% active in water, 55 Days): 2-Phase; Classification of Dispersion ([4]; 5.0% active in water, 3 Days): 2-Phase; Classification of Dispersion ([4]; 5.0% active in water, 13 Days): 2-Phase; Classification of Dispersion ([4]; 5.0% active in water, 55 Days): 2-Phase; Classification of Emulsion (Emulsion stability tests; 2 Hours after preparation, 2% ester, 7% myristyl propionate, 91% water): Good/OK; Average HLB ([5]; listed as stearate (I)): 7
